{"source": "patent US20230203081A1", "about": "“LINCOSAMIDE ANTIBIOTICS AND USES THEREOF” (President and Fellows of Harvard College, priority 2020, published 2023)", "type_in_all_cases": "cell-based", "key": {"[1]": {"tested_on": "broad panel of different clinical isolates", "experiment": "microbe, parasite or virus in culture", "summary_of_the_method": "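Isolates other than streptococci and anaerobes, which had their own procedures, were grown overnight at 35° C on tryptic soy agar with 5% sheep blood. Suspensions were then diluted to a final inoculum of 5×10^5 CFU/mL in broth microdilution wells.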"}, "E. faecium Line R & VRE": {"tested_on": "E. faecium Line R & VRE", "experiment": "MIC (broth microdilution or agar dilution, CLSI)", "conditions": "Enterococcus faecium, E. faecium HAV#319, Line R & Vanco R, read-out: MIC", "summary_of_the_method": "(§1)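 CLSI MIC, broth microdilution or agar dilution; compound 128-0.06 μg/mL, 2.5% DMSO final; triplicate. Anaerobes (e.g. clostridia) and streptococci run by specialized procedures. Other strains: overnight 35° C on blood agar, CaMHB, 0.5 McFarland, inoculum 5×10^5 CFU/mL.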"}, "P. aeruginosa ATCC 27853": {"tested_on": "P. aeruginosa ATCC 27853", "experiment": "MIC (broth microdilution or agar dilution, CLSI)", "conditions": "Pseudomonas aeruginosa, ATCC27853; P. aeruginosa HAV#009, ATCC 27853; read-out: MIC", "summary_of_the_method": "as §1"}, "P. aeruginosa ΔAmex OprM": {"tested_on": "P. aeruginosa ΔAmex OprM", "experiment": "MIC (broth microdilution or agar dilution, CLSI)", "conditions": "Pseudomonas aeruginosa", "summary_of_the_method": "as §1"}}, "data": [{"smiles": "CO/N=C(\\C(=O)N[C@@H]1C(=O)N2C(C(=O)O)=C(CSc3nc(=O)c(=O)[nH]n3C)CS[C@H]12)c1csc(N)n1", "note": "[Ceftriaxone]", "values": [{"measurement": "MIC", "setting": "[1]; Acinetobacter baumannii, A. baumannii HAV#651, Clinical", "value": 4, "unit": "µg/mL"}, {"measurement": "MIC", "setting": "[1]; Acinetobacter baumannii, A. baumannii HAV#652 Clinical", "value": 16, "unit": "µg/mL"}, {"measurement": "MIC", "setting": "[1]; Acinetobacter baumannii, A. baumannii HAV#653, Clinical", "value": 2, "unit": "µg/mL"}, {"measurement": "MIC", "setting": "[1]; Acinetobacter baumannii, A. baumannii HAV#654, Clinical", "value": 4, "unit": "µg/mL"}, {"measurement": "MIC", "setting": "[1]; Acinetobacter baumannii, A. baumannii HAV#655, Clinical", "value": 64, "unit": "µg/mL"}, {"measurement": "MIC", "setting": "[1]; Acinetobacter baumannii, A. baumannii HAV#656, Clinical", "value": 64, "unit": "µg/mL"}, {"measurement": "MIC", "setting": "[1]; Acinetobacter baumannii, A. baumannii HAV#657, Clinical", "value": 64, "unit": "µg/mL"}, {"measurement": "MIC", "setting": "[1]; Acinetobacter baumannii, A. baumannii HAV#658, Clinical", "value": 16, "unit": "µg/mL"}, {"measurement": "MIC", "setting": "[1]; Acinetobacter baumannii, A. baumannii HAV#659, Clinical", "value": 32, "unit": "µg/mL"}, {"measurement": "MIC", "setting": "[1]; Acinetobacter baumannii, A. baumannii HAV#660, Clinical", "value": 32, "unit": "µg/mL"}, {"measurement": "MIC", "setting": "[1]; Acinetobacter baumannii, A. baumannii HAV#661, Clinical", "value": 2, "unit": "µg/mL"}, {"measurement": "MIC", "setting": "[1]; Acinetobacter baumannii, A. baumannii HAV#662, Clinical", "value": 32, "unit": "µg/mL"}, {"measurement": "MIC", "setting": "[1]; Acinetobacter baumannii, A. baumannii HAV#663, Clinical", "value": 16, "unit": "µg/mL"}, {"measurement": "MIC", "setting": "[1]; Acinetobacter baumannii, A. baumannii HAV#664, Carbapenem R", "value": 64, "unit": "µg/mL"}, {"measurement": "MIC", "setting": "[1]; Enterococcus faecalis, E. faecalis HAV#607, Clinical", "value": "> 256", "unit": "µg/mL"}, {"measurement": "MIC", "setting": "[1]; Enterococcus faecalis, E. faecalis HAV#608, Clinical", "value": "> 256", "unit": "µg/mL"}, {"measurement": "MIC", "setting": "[1]; Enterococcus faecalis, E. faecalis HAV#609, Clinical", "value": "> 256", "unit": "µg/mL"}, {"measurement": "MIC", "setting": "[1]; Enterococcus faecalis, E. faecalis HAV#610, Clinical", "value": "> 256", "unit": "µg/mL"}, {"measurement": "MIC", "setting": "[1]; Enterococcus faecalis, S. faecalis 5060, Line R & Vanco R", "value": "> 256", "unit": "µg/mL"}, {"measurement": "MIC", "setting": "[1]; Enterococcus faecalis, S. faecalis 5074, Line R", "value": 256, "unit": "µg/mL"}, {"measurement": "MIC", "setting": "[1]; Enterococcus faecalis, VRE, E. faecalis HAV#606, Clinical", "value": "> 256", "unit": "µg/mL"}, {"measurement": "MIC", "setting": "[1]; Enterococcus faecium, E. faecium HAV#327, Clinical", "value": 0.5, "unit": "µg/mL"}, {"measurement": "MIC", "setting": "[1]; Enterococcus faecium, E. faecium HAV#328, Clinical", "value": "> 128", "unit": "µg/mL"}, {"measurement": "MIC", "setting": "[1]; Enterococcus faecium, E. faecium HAV#329, Clinical", "value": "> 256", "unit": "µg/mL"}, {"measurement": "MIC", "setting": "[1]; Escherichia coli, E. coli HAV#503, Clinical", "value": "> 128", "unit": "µg/mL"}, {"measurement": "MIC", "setting": "[1]; Escherichia coli, E. coli HAV#511, Clinical", "value": 16, "unit": "µg/mL"}, {"measurement": "MIC", "setting": "[1]; Escherichia coli, E. coli HAV#512, Clinical", "value": "< 0.06", "unit": "µg/mL"}, {"measurement": "MIC", "setting": "[1]; Escherichia coli, E. coli HAV#513, Clinical", "value": 0.125, "unit": "µg/mL"}, {"measurement": "MIC", "setting": "[1]; Escherichia coli, E. coli HAV#514, Clinical", "value": 0.125, "unit": "µg/mL"}, {"measurement": "MIC", "setting": "[1]; Escherichia coli, E. coli HAV#516, ESBL-producing", "value": 64, "unit": "µg/mL"}, {"measurement": "MIC", "setting": "[1]; Klebsiella pneumoniae, K. pneumoniae HAV#404, Clinical", "value": 64, "unit": "µg/mL"}, {"measurement": "MIC", "setting": "[1]; Klebsiella pneumoniae, K. pneumoniae HAV#405, Clinical", "value": 64, "unit": "µg/mL"}, {"measurement": "MIC", "setting": "[1]; Klebsiella pneumoniae, K. pneumoniae HAV#406, Clinical", "value": "< 0.06", "unit": "µg/mL"}, {"measurement": "MIC", "setting": "[1]; Klebsiella pneumoniae, K. pneumoniae HAV#407, Clinical", "value": 1, "unit": "µg/mL"}, {"measurement": "MIC", "setting": "[1]; Klebsiella pneumoniae, K. pneumoniae HAV#408, Clinical", "value": 2, "unit": "µg/mL"}, {"measurement": "MIC", "setting": "[1]; Klebsiella pneumoniae, K. pneumoniae HAV#409, ESBL-producing", "value": 128, "unit": "µg/mL"}, {"measurement": "MIC", "setting": "[1]; Neisseria gonorrhoeae, N. gonorrhoeae HAV#701, Clinical", "value": 0.125, "unit": "µg/mL"}, {"measurement": "MIC", "setting": "[1]; Neisseria gonorrhoeae, N. gonorrhoeae HAV#702, Clinical", "value": 0.25, "unit": "µg/mL"}, {"measurement": "MIC", "setting": "[1]; Staphylococcus aureus, MRSA, S. aureus HAV#017, MRSA Col(Colindale, England)", "value": "> 128", "unit": "µg/mL"}, {"measurement": "MIC", "setting": "[1]; Staphylococcus aureus, MRSA, S. aureus HAV#218, Line R", "value": 32, "unit": "µg/mL"}, {"measurement": "MIC", "setting": "[1]; Staphylococcus aureus, MRSA, S. aureus HAV#220, Line R", "value": "> 128", "unit": "µg/mL"}, {"measurement": "MIC", "setting": "[1]; Staphylococcus aureus, MSSA, S. aureus HAV#219, Line R", "value": 2, "unit": "µg/mL"}, {"measurement": "MIC", "setting": "[1]; Staphylococcus aureus, S. aureus HAV#052, mecA, norA, fosB, blaZ", "value": 64, "unit": "µg/mL"}, {"measurement": "MIC", "setting": "[1]; Staphylococcus aureus, S. aureus HAV#053 mecA, norA, fosB", "value": 128, "unit": "µg/mL"}, {"measurement": "MIC", "setting": "[1]; Staphylococcus aureus, S. aureus HAV#054, mecA, norA, spcl, aad1, fosB, ermA, aac6′-aph2″, blaZ", "value": "> 256", "unit": "µg/mL"}, {"measurement": "MIC", "setting": "[1]; Staphylococcus aureus, S. aureus HAV#211, Clinical", "value": "> 64", "unit": "µg/mL"}, {"measurement": "MIC", "setting": "[1]; Staphylococcus aureus, S. aureus HAV#212, Clinical", "value": 32, "unit": "µg/mL"}, {"measurement": "MIC", "setting": "[1]; Staphylococcus aureus, S. aureus HAV#213, Clinical", "value": 1, "unit": "µg/mL"}, {"measurement": "MIC", "setting": "[1]; Staphylococcus aureus, S. aureus HAV#214, Clinical", "value": 4, "unit": "µg/mL"}, {"measurement": "MIC", "setting": "[1]; Staphylococcus aureus, S. aureus HAV#215, Clinical", "value": 1, "unit": "µg/mL"}, {"measurement": "MIC", "setting": "[1]; Staphylococcus aureus, S. aureus HAV#216, Clinical, cfr", "value": 128, "unit": "µg/mL"}, {"measurement": "MIC", "setting": "[1]; Staphylococcus aureus, S. aureus HAV#217, cfr", "value": 64, "unit": "µg/mL"}, {"measurement": "MIC", "setting": "[1]; Staphylococcus epidermidis, S. epidermidis HAV# 275 Clinical, cfr", "value": "> 128", "unit": "µg/mL"}, {"measurement": "MIC", "setting": "[1]; Staphylococcus epidermidis, S. epidermidis HAV# 276, cfr", "value": "> 128", "unit": "µg/mL"}, {"measurement": "MIC", "setting": "[1]; Staphylococcus epidermidis, S. epidermidis HAV#277, Line R", "value": "> 128", "unit": "µg/mL"}, {"measurement": "MIC", "setting": "[1]; Staphylococcus epidermidis, S. epidermidis HAV#278 Line R", "value": "> 128", "unit": "µg/mL"}, {"measurement": "MIC", "setting": "[1]; Staphylococcus epidermidis, S. epidermidis HAV#279, Line R", "value": 4, "unit": "µg/mL"}, {"measurement": "MIC", "setting": "[1]; Staphylococcus haemolyticus, S. haemolyticus 5052, Line R & Methicillin R", "value": "> 256", "unit": "µg/mL"}, {"measurement": "MIC", "setting": "[1]; Streptococcus pneumoniae, ATCC700673, S. pneumoniae HAV#352, ATCC 700673, MDR", "value": 1, "unit": "µg/mL"}, {"measurement": "MIC", "setting": "[1]; Streptococcus pneumoniae, ATCCBAA255, S. pneumoniae HAV#354, ATCC-BAA-255", "value": 1, "unit": "µg/mL"}, {"measurement": "MIC", "setting": "[1]; Streptococcus pneumoniae, ATCCBAA334, S. pneumoniae HAV#353, ATCC-BAA-334", "value": 1, "unit": "µg/mL"}, {"measurement": "MIC", "setting": "[1]; Streptococcus pneumoniae, S. pneumoniae HAV#356, Clinical", "value": 1, "unit": "µg/mL"}, {"measurement": "MIC", "setting": "[1]; Streptococcus pneumoniae, S. pneumoniae HAV#358, Clinical", "value": 1, "unit": "µg/mL"}, {"measurement": "MIC", "setting": "E. faecium Line R & VRE", "value": "> 256", "unit": "µg/mL"}, {"measurement": "MIC", "setting": "P. aeruginosa ATCC 27853", "value": "> 64", "unit": "µg/mL"}, {"measurement": "MIC", "setting": "P. aeruginosa ΔAmex OprM", "value": 16, "unit": "µg/mL"}]}]}
